Experimental data reported in patent US10844071B2, “Substituted [1,2,3]triazolo[4,5-d]pyrimidines that lower stress-induced p-tau” (BUCK INSTITUTE FOR RESEARCH ON AGING, priority 2015, dated 2020).
pKi: −log10 of the molar value. ≈ marks a conversion by molar mass, not a printed value. Where a name gives a salt, the structure may show the parent alone.

Key:
[1] = test system: SH-SY5Y cells; assay: Primary screen in SH-SY5Y cells (tau, p-tau); assay type: cell-based; conditions: for p-tau / tau: SH-SY5Y cells, no CRF
Protocol: (§1) As described below, in vitro studies were performed using SHSY-5Y cells. These cells are a useful neurological model that differentiate into cells with morphological and biochemical characteristics of mature neurons including mature isoforms of tau.
However, J04 did lower p-tau to the same level as J03 and significant may not have been reached due to low N #.

[2] = Solubility in DMSO; assay type: physicochemical; conditions: organic solvent or mixture, read-out: Solubility
[3] = test system: J20 mice; assay: J17 pilot study in J20 mice (oral, 28 days); assay type: in vivo, mouse
Protocol: Animal experiments were performed using J20 mice. The J20 mouse is a model of for Alzheimer's disease. This model overexpresses human APP with two mutations linked to familial Alzheimer's disease (the APP KM670/671NL (Swedish) and […] (Indiana) mutations).
In a J17 pilot study (#1 pilot study) male and female J20 mice were housed singly and treated with J17 at 10 mkd by oral delivery for 28 days. […]

[4] = In vivo pharmacokinetics, brain and plasma levels; design: species or system mouse
[5] = PAMPA; assay type: in vitro ADME; conditions: Tertiary
[6] = target: T1, CRF1 (Homo sapiens, UniProt P34998); assay: CRF1 binding (Ki); conditions: Tertiary; read-out: CRF1 Ki
T1 sequence (P34998 24-415): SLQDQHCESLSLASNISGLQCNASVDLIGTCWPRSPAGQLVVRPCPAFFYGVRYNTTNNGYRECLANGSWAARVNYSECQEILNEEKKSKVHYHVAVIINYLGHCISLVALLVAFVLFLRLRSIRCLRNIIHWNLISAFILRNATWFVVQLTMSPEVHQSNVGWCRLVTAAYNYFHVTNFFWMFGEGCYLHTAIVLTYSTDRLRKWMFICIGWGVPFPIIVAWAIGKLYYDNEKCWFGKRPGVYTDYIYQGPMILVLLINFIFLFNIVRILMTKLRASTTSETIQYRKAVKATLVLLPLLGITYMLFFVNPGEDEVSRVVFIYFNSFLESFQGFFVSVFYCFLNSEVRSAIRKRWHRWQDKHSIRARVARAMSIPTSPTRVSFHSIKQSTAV

[7] = test system: SH-SY5Y cells; assay: Secondary screen in SH-SY5Y cells with CRF stimulation (tau, p-tau, sAPPα); assay type: cell-based
Protocol: as §1
In an initial study, SHSY-5Y cells were cultured without serum to induce differentiation and increase tau expression. […] The increases were proportional and both were about 50%. J03 (FIG. 4A) reduced the CRF-induced tau increases more than the p-tau increases. The increase in p-tau with CRF was expected, but the increase in tau less predictable as CRF reduces neuronal differentiation (see Chen et al. (2004) Proc. Natl. Acad. Sci. USA, 101(44): 15782-15787), however, it can increase tau accumulation.

[8] = subcutaneous injection of 10 mg/kg
[9] = SH-SY5Y cells, CRF-induced increase
[10] = Secondary (SH-Sy5Y, CRF stimulation)

SMILES | solubility [2] [mM] | PAMPA [5] | pKi [6] | Tau % ([1]; Primary (SH-SY5Y)) | p-tau [1] | tau [1] | sAPPα (%) [7, 10] | other results
CCC(COC)n1nnc2c(Nc3ccc(OC)cc3OC)nc(C)nc21 (stereo not shown) [Compound J09] | ~10 (≈ 3720 µg/mL) |  |  | Unchanged |  |  |  | 
CCC(COC)n1nnc2c(N(C)C3CCOCC3)nc(C)nc21 (stereo not shown) [Compound J15] | ~10 (≈ 3340 µg/mL) | 0.34 | < 6.00 | Unchanged |  |  | >10% | p-Tau (%) ([1]; Primary (SH-SY5Y)): ↓>10%; Tau % [7, 10]: ↓>30%; p-Tau (%) [7, 10]: ↓>30%
CCC(COC)n1nnc2c(Nc3ccc(OC)cc3C)nc(C)nc21 (stereo not shown) [Compound J04] | ~10 (≈ 3560 µg/mL) | 0.44 | 7.82 | Unchanged | did lower p-tau, although not significantly | did not lower |  | brain levels ([4]; after SQ injection or oral delivery): 55 ng/g
CCC(COC)n1nnc2c(N(C)c3c(C)cc(C)cc3C)nc(C)nc21 (stereo not shown) [Compound J14] | ~10 (≈ 3680 µg/mL) | 1.11 | 7.60 | Unchanged |  |  |  | 
CCC(COC)n1nnc2c(Nc3ccc(Cl)cc3C)nc(C)nc21 (stereo not shown) [Compound J08] | ~10 (≈ 3610 µg/mL) | 1.27 | 7.82 | Unchanged |  |  | Unchanged | 

Now from value to compound, other results behind:

solubility [2] [mM] | PAMPA [5] | pKi [6] | SMILES | Tau % ([1]; Primary (SH-SY5Y)) | p-tau [1] | tau [1] | sAPPα (%) [7, 10] | other results
~10 |  |  | CCC(COC)N(C)c1nc(C)nc2c1nnn2-c1ccc(OC)cc1C (stereo not shown) [J20 HCl] | Unchanged |  |  |  | 
~10 (≈ 3560 µg/mL) | 0.64 | 7.52 | CCC(COC)Nc1nc(C)nc2c1nnn2-c1ccc(OC)cc1C (stereo not shown) [Compound J17] |  | significantly lower | significantly lower | Unchanged | novel object preference ([3]; all mice): increase with J17 was significant; sAPPα ([3]; both genders): increase with J03 but not J17; p-tau/tau ratio ([3]; males): lower still and just missed significance; sAPPα/sAPPβ ratio ([3]; males): greater; activity (total interactions) ([3]; not significant): lowered; sAPPβ ([3]; one high outlier eliminated): decrease; brain levels ([4]; oral delivery, 10 mg/kg): ~50 ng/g; plasma levels relative to brain levels ([4]; oral delivery, 10 mg/kg): ~10 fold; brain levels [4, 8]: ~400 ng/g; plasma levels [4, 8]: ~4000 ng/m; p-tau after CRF exposure [7, 9]: decreased; tau after CRF exposure [7, 9]: decreased; sAPPα after CRF exposure ([7]; SH-SY5Y cells, FIG. 19): same as control; sAPPα with increasing concentrations of CRF ([7]; without CRF and at 50 nM CRF, FIG. 20): lack of increase
~10 (≈ 3610 µg/mL) | 0.75 |  | CCC(COC)Nc1nc(C)nc2c1nnn2-c1ccc(Cl)cc1C (stereo not shown) [Compound J19, 3-(4-Chloro-2-methylphenyl)-N-(1-methoxybutan-2-yl)-5-methyl-3H-[1,2,3]triazolo[4,5-d]pyrimidin-7-amine] |  | decreased | decreased | Unchanged | brain levels at the peak ([4]; SQ injection at 10 mkd): ~190 ng/g; time of peak brain level after injection ([4]; SQ injection at 10 mkd): 4 h; brain levels with oral delivery compared to SQ ([4]; oral delivery, detectable from 1 to 6 hours): much lower; p-tau/tau ratio ([1]; FIG. 29): unchanged; p-tau/tau ratios ([7]; 50 and 100 nM CRF, FIG. 28 panel C): highly significantly decreased; sAPPα ([7]; FIG. 28 panel D, significance for J03 at 100 nM CRF): trend for sAPPα to be higher; tau ([7]; absence of CRF and presence of 100 nM CRF, FIG. 28 panel A): trend to decrease; p-tau ([7]; presence and absence of CRF, FIG. 28 panel B): significantly reduced
